Test results: US20060122279A1, “Hydrophobic polyamine amides as potent lipopolysaccharide sequestrants” (priority 2004, published 2006)
“And” between values parts separate entries of the source, which are not always exact repeats. Identical values can stand only once. Like-named read-outs stand apart in the source and are kept apart here.

What was measured:
[1] = test system: CF-1 mice; conditions: previous studies (ref. 37); cited from earlier work
[2] = type: binding, E. coli 0111:B4; conditions: for EC50: E. coli 0111:B4 LPS, Tables 1-3, read-out: ED50 (half-maximal effective displacement of BC probe from LPS)
Description: Polymyxin B (PMB), a peptide antibiotic known to bind and neutralize LPS^47 serves as the positive control and reference compound for every plate, enabling the quantitative assessment of repeatability and reproducibility (CV and Z′ factors) for the assay. Robotic liquid handling is performed on a Precision 2000 automated microplate pipetting system, programmed using the Precision Power software, Bio-Tek Instruments Inc., VT, USA. Stock solutions of LPS (5 mg/ml; E. coli 0111:B4; procured from Sigma) and BC (500 μM) are prepared in Tris buffer (pH 7.4, 50 mM). 1 ml each of the LPS and BC stocks are mixed and diluted in Tris buffer to a final volume of 100 ml, yielding final concentrations of 50 μg/ml of LPS and 5 μM BC. 40 μl of this BC:LPS mixture is added to each well of the plate using the Precision 2000. Fluorescence measurements are made at 25° C. on a Fluoromax-3 with Micromax Microwell 384-well plate reader, using DataMax software, Jobin Yvon Inc., N.J. The BC excitation wavelength is 580 nm, emission spectra are taken at 620 nm with both emission and excitation monochromator bandpasses set at 5 nm.

[3] = test system: NFκB; experiment: NFκB inhibition (LPS-induced); type: cell-based; conditions: Table 7 focused library, NFκB inhibition; read-out: NFκ B
Source text: A focused library of alkyl or acyl c-substituted lysine-spermine conjugates is synthesized with even carbon-numbered chains of C14 to C20 lengths. […] Furthermore, the data showhigh activity compounds are those with chain lengths between C16 and C20. […] The exemplary compounds L-Lys-ε-(stearoyl)-N^1-spermine, D-Lys-ε-(stearoyl)-N^1-spermine, L-Lys-ε-(octadecanyl)-N^1-spermine and D-Lys-ε-(octadecanyl)—N1-spermine all show high activity for the prevention of LPS-induced NFκβ cytokine release from stimulated lymphocytes. Furthermore, the exemplary compounds L-Lys-ε-(stearoyl)-N^1-spermine, D-Lys-ε-(stearoyl)-N^1-spermine, L-Lys-ε-(octadecanyl)-N^1-spermine and D-Lys-ε-(octadecanyl)-N^1-spermine all show high activity for the prevention of LPS-induced NO release from stimulated lymphocytes.

[4] = test system: murine macrophage J774.A1 cells; experiment: Nitric oxide (NO) inhibition in LPS-stimulated J774.A1 cells (Griess); type: cell-based
Description: Murine monocytes (J774.A1 cells) produce measurable quantities of NO on exposure to LPS and provide a model for the rapid assessment of compounds to neutralize LPS activity. […] In all experiments, Polymyxin B (PMB), a decapeptide antibiotic, known to bind and neutralize LPS,^29;47;48 is used as a reference compound.
Nitric oxide production is measured as total nitrite in murine macrophage J774.A1 cells using the Griess reagent system.^53;54 Murine macrophage J774.A1 cells are grown in RPMI-1640 cell-culture medium containing L-glutamine and sodium bicarbonate and supplemented with 10% fetal bovine serum, 1% L-glutamine-penicillin-streptomycin solution, and 200 μg/ml L-arginine at 37° C. in a 5% CO2 atmosphere. Cells are plated at ˜2×10^6/ml in a volume of 40 μl/well, in 384 well, flat-bottomed, cell culture treated microtiter plates until confluency and subsequently stimulated with 100 ng/ml lipopolysaccharide (LPS). Concurrent to LPS stimulation, serially diluted concentrations of test compounds are added to the cell medium and left to incubate overnight for 16 h. Polymyxin B is used as reference compound in each plate. Positive—(LPS stimulation only) and negative-controls (J774.A1 medium only) are included in each experiment. Nitrite concentrations are measured adding 30 μl of supernatant to equal volumes of Griess reagents (50 μl/well; 0.1% NED solution in ddH2O and 1% sulfanilamide, 5% phosphoric acid solution in ddH2O) and incubating for 15 minutes at room temperature in the dark. Absorbance at 535 nm is measured using a Molecular Devices Spectramax M2 multifunction plate reader (Sunnyvale, Calif.). Nitrite concentrations are interpolated from standard curves obtained from serially diluted sodium nitrite standards.

[5] = J774.A1 cells, 100 ng/ml LPS, 16 h, Tables 1-3, read-out: NO IC50
[6] = Mus musculus, J774.A1, Table 7 focused library, NO inhibition, read-out: NO
[7] = Mus musculus, J774.A1, 16 h, J774.A1 cells, 100 ng/ml LPS, 16 h, Tables 1-3, read-out: NO IC50

Row | SMILES | window of protection [1] [min] | EC50 [2] | IC50 [3] [µM] | IC50 [4, 5] [µM] | IC50 [4, 6] [µM] | IC50 ([4]; read-out: NO IC50, J774.A1 cells, 100 ng/ml LPS, 16 h, Tables 1-3) [µM] | IC50 [4, 7] [µM] | IC50 ([2]; b47, cis-unsaturated vs saturated alkyl) [µM]
1 | CCCCCCCC/C=C\CCCCCCCC(=O)OCC(COC(=O)CCCCCCC/C=C\CCCCCCCC)NC(=O)C(CCCNCCCN)NCCCN (stereo not shown) [DOSPER] | 15 |  |  |  |  |  |  | 
2 | CCCCCCCCCCCCCCCC(=O)NCCCCC(N)C(=O)NCCCNCCCCNCCCN [Compound 14, L-Lys(palmitoyl)-N^1-spermine] |  | 11 µM and 10.7 µM | 0.819 | 6.41 | 16.8 | 6.4 |  | 
3 | CCCCCCCCCCCCCC(=O)NCCCCC(N)C(=O)NCCCNCCCCNCCCN [Compound 16, L-Lys-ε-(myristoyl)-N^1-spermine] |  | 5.63 µM | 0.753 |  | 22.2 |  | 1.6 | 
4 | CCCCCCCCCCCCCCCCCCCC(=O)NCCCCC(N)C(=O)NCCCNCCCCNCCCN [Compound 7, L-Lys-ε-(eicosanoyl)-N^1-spermine] |  | 6.46 µM | 1.24 | 1.21 | 4.69 |  | 1.2 | 
5 | CCCCCCCCCCCCCCCCNCCCCC(N)C(=O)NCCCNCCCCNCCCN [Compound 26, L-Lys-ε-(“hexadecyl)-N^1-spermine] |  | 5.6 µM and 5.56 µM | 0.19 |  | 3.78 |  |  | 5.6
